According to US9309314B2, “Polypeptides, nucleic acids and uses thereof” (AGENCY FOR SCIENCE, TECHNOLOGY AND RESEARCH (A*STAR), priority 2013, dated 2016):
Entries after “also recorded” stand apart in the source; their conditions may differ.

Key:
[1] = system: myocardial ischaemia-reperfusion injury; assay: Myocardial ischaemia-reperfusion injury (APELIN publications repeated with ELABELA); type: in vivo; conditions: administered during reperfusion
Source text: Peptides 2009; 30:1144-52. • Simpkin J C, Yellon D M, Davidson S M, Lim S Y, Wynne A M, Smith C C. […] Basic Res Cardiol 2007; 102:518-28.

atherosclerosis = assay: Atherosclerosis (APELIN publication repeated with ELABELA); conditions: mouse, in vivo
Source text: J Clin Invest 2008; 118:3343-54.
The experiments described in the above publication are repeated, with the replacement of APELIN with ELABELA.

SSEA3 and TRA-1-60 = assay: FACs of stem cell surface markers in ELA-treated hESCs; type: cell-based, human; conditions: hESCs treated with recombinant ELA
heart failure = assay: Heart failure (APELIN publications repeated with ELABELA); conditions: in vivo
Source text: Nature 2012 Aug. […] J Clin Invest. 2013 Nov. 1.

hESCs [2] = assay: Uptake of FITC-labeled recombinant ELA by hESCs (immunofluorescence); type: cell-based, human; conditions: peptide labeled with FITC
[3] = system: primary human fibroblasts; assay: Growth and survival of primary fibroblasts with recombinant ELA; type: cell-based; conditions: primary fibroblast cells
Method: (§1) Primary human fibroblasts, SW1353 chondrosarcoma (ATCC) and NTERA2 hECs (a gift from Barbara Knowles and Davor Solter) were grown in Dulbecco's modified Eagle's medium (DMEM) with 10% FBS (Hyclone), 2 mM GlutaMAX™ (Invitrogen) and 1 mM sodium pyruvate.
(§2) For xCELLigence real time growth assays, 4000 cells were plated per well of an E-plate (ACEA Biosciences) with media changes every 48 hours.
(§3) Recombinant ELA was added at 2.5 uM (or 10 μg/ml). Cell cycle studies were performed with Click-iT EDU staining kit (Invitrogen) and by performing a double thymidine block (2.5 mM thymidine; 16 hour block, 8 hour release, 16 hour block) followed by DAPI staining for DNA content at the indicated times following release.

shELA hESCs = assay: Rescue of growth of shELA hESCs by exogenous peptide; type: cell-based, human; conditions: addition of recombinant peptide
Method: as §2, §3
To generate stable inducible knockdown of ELA in hESCs, the sequence […] (SEQ ID NO: 132) targeting the 3′UTR of ELA was cloned into pSUPERIOR (Oliogoengine) and nucleofected (Lonza) into Shef4TetR5 hESCs (Zafarana et al., 2009). Neomycin-resistant cells were clonally expanded and assayed for doxycycline (20 ng/ml)-inducible knockdown. Data from one representative clone (Shef4TetR5 shELA) are shown in this paper. Shef4TetR5 shβ2M were derived as previously described (Zafarana et al., 2009). Unless otherwise stated, ELA knockdown was induced on Day −4 with 20 ng/ml doxycycline to generate shELA cells.

[4] = system: pulmonary arterial hypertension; assay: Pulmonary arterial hypertension (APELIN publications repeated with ELABELA); conditions: in vivo
Source text: J Clin Invest 2011; 121:3735-46.
Am J Physiol Heart Circ Physiol 2009; 296:H2007-14.

blood pressure = assay: Hypertension (APELIN publications repeated with ELABELA); conditions: in vivo
Source text: Regulatory Peptides. 2001; 99(2-3):87-92. • Cheng X, Cheng X S, Pang C C. […] European Journal of Pharmacology. […] Journal of the American College of Cardiology. 2008; 52(11):908-913.

hESCs [5] = assay: hESC growth assays (cell counts, colony size, xCELLigence real time cell index); type: cell-based, human
Method: Feeder-free hESCs were cultured in clumps in mTSER1 (Stem Cell Technologies) on Matrigel (BD 354277).
hESCs were dissociated into single cells using Accutase (Stem Cell Technologies) and plated in the presence of 10 μM Y-27632 (ROCK inhibitor) for 12 hours (Watanabe et al., 2007).
as §2, §3

[6] = system: mesendodermal genes including GATA6, GATA4, FOXA2, EOMES and BRA; assay: qPCR of mesendodermal markers in hESCs; type: cell-based, human
Method: (§4) After the indicated time periods, embryoid bodies were harvested and RNA extracted using RNeasy kit […]. qPCR reactions were carried out using either Universal FastStart SYBR Green Mastermix (Roche) or using the Universal Probe Library system (Roche) in tandem with Taqman Fast Mastermix (Invitrogen). Primer sequences can be found in Table E1.

myocardial infarction = assay: Coronary artery disease / myocardial infarction (APELIN publications repeated with ELABELA); type: in vivo, rat
Source text: Peptides 2013; 46:76-82. • Li L, Zeng H, Chen J X. Apelin-13 increases myocardial progenitor cells and improves repair postmyocardial infarction. Am J Physiol Heart Circ Physiol 2012; 303:H605-18. • Pisarenko O I, Serebryakova L I, Pelogeykina Y A, et al. In vivo reduction of reperfusion injury to the heart with apelin-12 peptide in rats. Bull Exp Biol Med 2011; 152:79-82.

hESCs [7] = assay: Directed endoderm differentiation of hESCs (SOX17+ cell count); type: cell-based, human; conditions: 2.5 uM ELA peptide up to day 3
Method: Shef4TetR5-shELA and Shef4TetR5-shβ2M cells were cultured in the presence (shELA and shβ2M respectively) or absence (Control) of 20 ng/ml doxycycline for 1 passage (4 days) and dissociated with Accutase. […] 24 hours later, the media was changed to Endo differentiation media 1 [RPMI 1640 (Gibco), 1X B-27 supplement (Invitrogen), 50 ng/ml of Activin A (R&D Systems), 25 ng/ml BMP4 (R&D Systems) and 50 ng/ml bFGF (Invitrogen)] for 3 days. On day 3, the media was changed to Endo differentiation media 2 (RPMI 1640, B27, 50 ng/ml Activin) for 2 more days of culture. Rescue experiments were performed by adding 2.5 uM of ELA peptide to Shef4TetR5-shELA concurrently with doxycycline up to day 3, when the ELA peptide is no longer necessary as judged by downregulation of endogenous ELA.
On day 5, cells were fixed with 4% paraformaldehyde and stained with α SOX17 (AF1924, R&D Systems) and DAPI. For each well, three different randomly selected fields were imaged and the number of nuclei staining positive of SOX17 and DAPI were counted using a custom macro in ImageJ. A minimum of two wells per condition was used for each experiment, and a minimum of two independent experiments were performed to generate the results.

hESCs [8] = assay: Embryoid body differentiation of ELA-treated hESCs (qPCR); type: cell-based, human
Method: Embryoid body differentiation was performed by plating 1 million cells per well of an Aggrewell 400 plate in Aggrewell Medium (Stem Cell Technologies) followed by harvesting and replating into low-adhesion plates (Corning).
as §4

[9] = system: human chondrosarcoma cell line; assay: Growth and survival of chondrosarcoma cells with recombinant ELA; type: cell-based; conditions: unipotent human chondrosarcoma cells
Method: as §1, §2, §3

other tested cell types = assay: Cellular uptake of recombinant ELA in other tested cell types; type: cell-based; conditions: other tested cell types than hESCs
erectile function = assay: Erectile dysfunction (APELIN publication repeated with ELABELA); conditions: mouse, in vivo
Source text: J Sex Med. 2013 Apr. 11. doi: 10.1111/jsm.12158.

hECs = assay: Growth and survival of hECs with recombinant ELA; type: cell-based, human; conditions: multipotent hECs
Method: as §1, §2, §3

Which results are given for “QRPVNLTMRRKLRKHNCLQRRCMPLHSRVPFP (listed as Homo sapiens) [ELA, synthetically produced recombinant mature human ELABELA, a 32 amino-acid peptide hormone]”?
infarct size [1]: significantly decrease infarct size; Ang II-mediated increase in atherosclerosis burden (atherosclerosis): mitigates the Ang II-mediated increase in atherosclerosis burden; abdominal aortic aneurysm formation and rupture (atherosclerosis): inhibit abdominal aortic aneurysm formation and rupture; protection against atherosclerosis (atherosclerosis): can protect against atherosclerosis; levels of cell surface markers SSEA3 and TRA-1-60 (SSEA3 and TRA-1-60): do not lose; also recorded: unchanged levels; protection against heart failure (heart failure): able to provide protection against heart failure; uptake by hESCs (hESCs [2]): rapidly up-taken; also recorded: rapidly taken up; pro-growth and survival properties [3]: not seen; also recorded: exerted activity only on hESCs cultures; rescue of the growth of shELA hESCs (shELA hESCs): sufficient to rescue; also recorded: entirely rescued to normal levels; symptoms of pulmonary arterial hypertension [4]: alleviates symptoms of pulmonary arterial hypertension; blood pressure (blood pressure): causes a reduction in blood pressure; growth of hESCs by cell numbers (hESCs [5]; FIG. 3C, relative to untreated hESCs): increased growth; survival of hESCs (hESCs [5]; FIG. 3D, relative to untreated hESCs): increased survival; concentration range in which the recombinant peptide is bioactive (hESCs [5]; hESCs, endogenous ELA in conditioned media is in the nM range): μM range; HIV-1 entry (HIV-1): prevents or slows-down HIV-1 entry; expression of mesendodermal markers [6]: significantly higher levels of mesendodermal markers; also recorded: consistently upregulated; myocardial infarction size and damage to cardiomyocytes (myocardial infarction; injection): limit the myocardial infarction size and reduce damage to cardiomyocytes; angiogenesis and cardiac repair postmyocardial infarction (myocardial infarction; rat, in vivo): promote angiogenesis and ameliorate cardiac repair postmyocardial infarction; rescue of endoderm differentiation of shELA hESCs (hESCs [7]): entirely rescued; also recorded: sufficient to rescue; lineage commitment during embryoid body differentiation (hESCs [8]): can differentiate into all three germ layers; also recorded: not biased towards mesoderm or endoderm lineages; pro-growth and survival properties [9]: not seen; also recorded: exerted activity only on hESCs cultures; rapid cellular uptake (other tested cell types): not in other tested cell types; erectile function (erectile function): significant restoration of erectile function; pro-growth and survival properties (hECs): not seen; also recorded: exerted activity only on hESCs cultures
